The target in this assay is BRAF^V600E protein (Homo sapiens, UniProt P15056, V600E). The assay is described as follows: HiBiT cellular BRAF V600E degradation assay. As to conditions: 24 h incubation; for DC50: A375.10 cells (HiBiT tag knocked in at N-terminal of BRAF V600E), concentration at which 50% of total cellular BRAF V600E is degraded; for Emax: A375.10 cells, Emax = amount of residual protein remaining in the cell after compound treatment, read-out: HiBit 24 h Emax. Format: cell-based. A general note: HiBiT is a short tag that completes a luciferase, so light tracks the accessible tagged protein.
BRAF^V600E protein, sequence (P15056 whole entry V600E): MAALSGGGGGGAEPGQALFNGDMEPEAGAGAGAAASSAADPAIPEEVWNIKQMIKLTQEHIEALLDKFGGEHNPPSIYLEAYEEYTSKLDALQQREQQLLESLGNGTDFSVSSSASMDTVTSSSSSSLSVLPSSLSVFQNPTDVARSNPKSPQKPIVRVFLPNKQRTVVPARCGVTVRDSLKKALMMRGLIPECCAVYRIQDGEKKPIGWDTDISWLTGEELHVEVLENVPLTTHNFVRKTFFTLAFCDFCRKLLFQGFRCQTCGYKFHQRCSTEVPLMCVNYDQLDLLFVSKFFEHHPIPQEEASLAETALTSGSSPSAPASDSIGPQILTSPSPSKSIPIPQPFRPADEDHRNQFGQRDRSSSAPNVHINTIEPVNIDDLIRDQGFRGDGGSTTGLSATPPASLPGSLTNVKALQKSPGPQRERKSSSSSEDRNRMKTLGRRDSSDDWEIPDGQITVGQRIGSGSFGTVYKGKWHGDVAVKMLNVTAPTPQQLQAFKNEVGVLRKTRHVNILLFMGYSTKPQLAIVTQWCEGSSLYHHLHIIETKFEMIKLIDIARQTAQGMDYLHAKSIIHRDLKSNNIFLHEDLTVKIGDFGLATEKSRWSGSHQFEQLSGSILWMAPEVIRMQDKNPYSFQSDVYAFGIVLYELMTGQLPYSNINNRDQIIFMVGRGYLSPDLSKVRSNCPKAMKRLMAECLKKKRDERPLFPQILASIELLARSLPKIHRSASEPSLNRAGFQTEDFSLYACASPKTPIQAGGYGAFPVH

Structures are written as SMILES.

This note sets out measurements from US12559492B2, “BRAF degraders” (C4 Therapeutics, Inc., priority 2020, dated 2026).

In general, DC50 refers to the concentration at which degradation of the target reaches its halfway point. Lower therefore signals a more potent degrader. The term Emax denotes the maximal effect, on the per cent scale that the assay sets. Take `CCN(C)S(=O)(=O)Nc1cccc(C(=O)c2c[nH]c3ncc(-c4ccc(N5CCN(C(=O)CC6(O)CCN(c7ncc(NC8CCC(=O)NC8=O)cc7F)CC6)CC5)cc4)cc23)c1F` (centres unmarked) [Example 120, 5-[4-[4-[2-[1-[5-[(2,6-dioxo-3-piperidyl)amino]-3-fluoro-2-pyridyl]-4-hydroxy-4-piperidyl]acetyl]piperazin-1-yl]phenyl]-3-[3-[[ethyl(methyl)sulfamoyl]amino]-2-fluoro-benzoyl]-1H-pyrrolo[2,3-b]pyridine]: the DC50 turned out to be 2.87 nM and the Emax was determined as 9.99%.

Regarding `CCN(C)S(=O)(=O)Nc1ccc(F)c(C(=O)c2c[nH]c3ncc(-c4cnc(N5CCN(C(=O)CN6CCC(c7ccc(NC8CCC(=O)NC8=O)cc7)CC6)CC5)nc4)cc23)c1Cl` (centres unmarked) [Example 121, 3-[2-chloro-3-[[ethyl(methyl)sulfamoyl]amino]-6-fluoro-benzoyl]-5-[2-[4-[2-[4-[4-[(2,6-dioxo-3-piperidyl)amino]phenyl]-1-piperidyl]acetyl]piperazin-1-yl]pyrimidin-5-yl]-1H-pyrrolo[2,3-b]pyridine], the half-maximal degradation concentration (DC50) was found to be 2.3 nM and the Emax stood at 4.98%.

Turning to `CCN(C)S(=O)(=O)Nc1ccc(F)c(C(=O)c2c[nH]c3ncc(-c4cnc(N5CCN(C(=O)CN6CCC(c7ccc(NC8CCC(=O)NC8=O)cc7)CC6)CC5)nc4)cc23)c1C` (centres unmarked) [Example 123, 5-[2-[4-[2-[4-[4-[(2,6-dioxo-3-piperidyl)amino]phenyl]-1-piperidyl]acetyl]piperazin-1-yl]pyrimidin-5-yl]-3-[3-[[ethyl(methyl)sulfamoyl]amino]-6-fluoro-2-methyl-benzoyl]-1H-pyrrolo[2,3-b]pyridine], the DC50 was determined as 46.4 nM and the Emax was 11.7%.

Regarding `CCN(C)S(=O)(=O)Nc1ccc(F)c(C(=O)c2c[nH]c3ncc(C#CC4CCN(C(=O)CN5CCC(c6ccc(NC7CCC(=O)NC7=O)cc6F)CC5)CC4)cc23)c1F` (centres unmarked) [Example 124, 5-[2-[1-[2-[4-[4-[(2,6-dioxo-3-piperidyl)amino]-2-fluoro-phenyl]-1-piperidyl]acetyl]-4-piperidyl]ethynyl]-3-[3-[[ethyl(methyl)sulfamoyl]amino]-2,6-difluoro-benzoyl]-1H-pyrrolo[2,3-b]pyridine], the DC50 is 22.1 nM and the Emax was found to be 13%.

`CCN(C)S(=O)(=O)Nc1ccc(F)c(C(=O)c2c[nH]c3ncc(-c4cnc(N5CCC(C(=O)N6CCC(c7ccc(NC8CCC(=O)NC8=O)cc7)CC6)CC5)nc4)cc23)c1F` (centres unmarked) [Example 127, 5-[2-[4-[4-[4-[(2,6-dioxo-3-piperidyl)amino]phenyl]piperidine-1-carbonyl]-1-piperidyl]pyrimidin-5-yl]-3-[3-[[ethyl(methyl)sulfamoyl]amino]-2,6-difluoro-benzoyl]-1H-pyrrolo[2,3-b]pyridine]: it took 13.2 nM to reach half-maximal degradation (DC50) and the Emax was 7.62%.

With `CCN(C)S(=O)(=O)Nc1ccc(F)c(C(=O)c2c[nH]c3ncc(-c4cnc(N5CCC(C(=O)NC6CCN(c7ccc(NC8CCC(=O)NC8=O)cc7F)CC6)CC5)nc4)cc23)c1F` (centres unmarked) [Example 128, N-[1-[4-[(2,6-dioxo-3-piperidyl)amino]-2-fluoro-phenyl]-4-piperidyl]-1-[5-[3-[3-[[ethyl(methyl)sulfamoyl]amino]-2,6-difluoro-benzoyl]-1H-pyrrolo[2,3-b]pyridin-5-yl]pyrimidin-2-yl]piperidine-4-carboxamide], the DC50 was 20.9 nM and the Emax is 14.6%.

Take `CCN(C)S(=O)(=O)Nc1ccc(F)c(C(=O)c2c[nH]c3ncc(-c4cnc(N5CC[C@@H](C(=O)N6CCC(c7ccc(NC8CCC(=O)NC8=O)cc7)CC6)C5)nc4)cc23)c1F` (stereo partly drawn) [Example 129, 5-[2-[(3R)-3-[4-[4-[(2,6-dioxo-3-piperidyl)amino]phenyl]piperidine-1-carbonyl]pyrrolidin-1-yl]pyrimidin-5-yl]-3-[3-[[ethyl(methyl)sulfamoyl]amino]-2,6-difluoro-benzoyl]-1H-pyrrolo[2,3-b]pyridine]: the DC50 stood at 5.11 nM and the Emax was determined as 13.8%.

For `CCN(C)S(=O)(=O)Nc1ccc(F)c(C(=O)c2c[nH]c3ncc(-c4cnc(N5CC[C@H](C(=O)N6CCC(c7ccc(NC8CCC(=O)NC8=O)cc7)CC6)C5)nc4)cc23)c1F` (stereo partly drawn) [Example 130, 5-[2-[(3S)-3-[4-[4-[(2,6-dioxo-3-piperidyl)amino]phenyl]piperidine-1-carbonyl]pyrrolidin-1-yl]pyrimidin-5-yl]-3-[3-[[ethyl(methyl)sulfamoyl]amino]-2,6-difluoro-benzoyl]-1H-pyrrolo[2,3-b]pyridine], the DC50 amounted to 9.73 nM and the Emax was determined as 12.9%.

For `CCN(C)S(=O)(=O)Nc1ccc(F)c(C(=O)c2c[nH]c3ncc(-c4cnc(N5CC[C@@H](CC(=O)N6CCC(c7ccc(NC8CCC(=O)NC8=O)cc7)CC6)C5)nc4)cc23)c1F` (stereo partly drawn) [Example 131, 5-[2-[(3S)-3-[2-[4-[4-[(2,6-dioxo-3-piperidyl)amino]phenyl]-1-piperidyl]-2-oxo-ethyl]pyrrolidin-1-yl]pyrimidin-5-yl]-3-[3-[[ethyl(methyl)sulfamoyl]amino]-2,6-difluoro-benzoyl]-1H-pyrrolo[2,3-b]pyridine], the DC50 came out at 27.1 nM and the Emax is 21.2%.

For `CCN(C)S(=O)(=O)Nc1ccc(F)c(C(=O)c2c[nH]c3ncc(-c4cnc(N5CC6(CC(C(=O)N7CCC(c8ccc(NC9CCC(=O)NC9=O)cc8)CC7)C6)C5)nc4)cc23)c1F` (centres unmarked) [Example 132, 5-[2-[6-[4-[4-[(2,6-dioxo-3-piperidyl)amino]phenyl]piperidine-1-carbonyl]-2-azaspiro[3.3]heptan-2-yl]pyrimidin-5-yl]-3-[3-[[ethyl(methyl)sulfamoyl]amino]-2,6-difluoro-benzoyl]-1H-pyrrolo[2,3-b]pyridine], half-maximal degradation (DC50) was put at 18.2 nM and the Emax is 12%.

With `CCN(C)S(=O)(=O)Nc1ccc(F)c(C(=O)c2c[nH]c3ncc(-c4cnc(N5CC6(CC(CC(=O)N7CCC(c8ccc(NC9CCC(=O)NC9=O)cc8)CC7)C6)C5)nc4)cc23)c1F` (centres unmarked) [Example 133, 5-[2-[6-[2-[4-[4-[(2,6-dioxo-3-piperidyl)amino]phenyl]-1-piperidyl]-2-oxo-ethyl]-2-azaspiro[3.3]heptan-2-yl]pyrimidin-5-yl]-3-[3-[[ethyl(methyl)sulfamoyl]amino]-2,6-difluoro-benzoyl]-1H-pyrrolo[2,3-b]pyridine], it took 14.7 nM to reach half-maximal degradation (DC50) and the Emax was 11.4%.

As for `CCN(C)S(=O)(=O)Nc1ccc(F)c(C(=O)c2c[nH]c3ncc(-c4cnc(N5CCC(CC(=O)NC6CCN(c7ccc(NC8CCC(=O)NC8=O)cc7F)CC6)CC5)nc4)cc23)c1F` (centres unmarked) [Example 134, N-[1-[4-[(2,6-dioxo-3-piperidyl)amino]-2-fluoro-phenyl]-4-piperidyl]-2-[1-[5-[3-[3-[[ethyl(methyl)sulfamoyl]amino]-2,6-difluoro-benzoyl]-1H-pyrrolo[2,3-b]pyridin-5-yl]pyrimidin-2-yl]-4-piperidyl]acetamide], it took 18.9 nM to reach half-maximal degradation (DC50) and the Emax worked out at 11%.

With `CCN(C)S(=O)(=O)Nc1ccc(F)c(C(=O)c2c[nH]c3ncc(-c4cnc(N5CCC(NC(=O)C6CCN(c7ccc(NC8CCC(=O)NC8=O)cc7F)CC6)CC5)nc4)cc23)c1F` (centres unmarked) [Example 136, 1-[4-[(2,6-dioxo-3-piperidyl)amino]-2-fluoro-phenyl]-N-[1-[5-[3-[3-[[ethyl(methyl)sulfamoyl]amino]-2,6-difluoro-benzoyl]-1H-pyrrolo[2,3-b]pyridin-5-yl]pyrimidin-2-yl]-4-piperidyl]piperidine-4-carboxamide], the DC50 is 3.26 nM and the Emax came to 7.37%.
